Laboratory results reported in ChEMBL document CHEMBL4813981, “Synthesis and in vitro antibacterial activity of new aminothiazole-oximepiperidone cephalosporins” (2021).
Values after ≈ are worked out from the molar mass of the structure shown.

How the values were obtained:
Escherichia coli [1] = experiment: Ratio of MBC to MIC for Escherichia coli ATCC 25922 assessed as reduction in bacterial growth in the presence of Avibactam; assay type: functional
Pseudomonas aeruginosa [2] = experiment: Antibacterial activity against Carbapenem- sensitive Pseudomonas aeruginosa 17-10 assessed as reduction in bacterial growth in the presence of Avibactam; assay type: functional
Escherichia coli [3] = experiment: Antibacterial activity against ESBLs negative Carbapenem-sensitive Escherichia coli 17-20 assessed as reduction in bacterial growth in the presence of Avibactam; assay type: functional
Klebsiella aerogenes [4] = experiment: Ratio of MBC to MIC for Enterobacter aerogenes 17-4 assessed as reduction in bacterial growth in the presence of Avibactam; assay type: functional
Klebsiella aerogenes [5] = experiment: Ratio of MBC to MIC for Enterobacter aerogenes 17-3 assessed as reduction in bacterial growth in the presence of Avibactam; assay type: functional
Escherichia coli [6] = experiment: Ratio of MBC to MIC for ESBLs positive carbapenem-negative Escherichia coli 17-10 assessed as reduction in bacterial growth in the presence of Avibactam; assay type: functional
Pseudomonas aeruginosa [7] = experiment: Ratio of MBC to MIC for Pseudomonas aeruginosa ATCC 27853 assessed as reduction in bacterial growth; assay type: functional
Acinetobacter baumannii [8] = experiment: Antibacterial activity against Carbapenem- resistant Acinetobacter baumannii 17-11 assessed as reduction in bacterial growth
Enterobacter cloacae [9] = experiment: Antibacterial activity against Enterobacter cloacae 17-4 assessed as reduction in bacterial growth in the presence of Avibactam; assay type: functional
Escherichia coli [10] = experiment: Ratio of MBC to MIC for ESBLs positive Carbapenem-sensitive Escherichia coli 17-10 assessed as reduction in bacterial growth; assay type: functional
Escherichia coli [11] = experiment: Antibacterial activity against ESBLs negative Carbapenem-sensitive Escherichia coli 17-16 assessed as reduction in bacterial growth in the presence of Avibactam; assay type: functional
Klebsiella pneumoniae [12] = experiment: Ratio of MBC to MIC for ESBLs positive Carbapenem-sensitive Klebsiella pneumoniae 17-6 assessed as reduction in bacterial growth; assay type: functional
Pseudomonas aeruginosa [13] = experiment: Ratio of MBC to MIC for carbapenem-sensitive Pseudomonas aeruginosa 17-29 assessed as reduction in bacterial growth in the presence of Avibactam; assay type: functional
Escherichia coli [14] = experiment: Ratio of MBC to MIC for ESBLs positive carbapenem-negative Escherichia coli 17-18 assessed as reduction in bacterial growth in the presence of Avibactam; assay type: functional
Escherichia coli [15] = experiment: Antibacterial activity against Escherichia coli 15-3 overexpressing extended spectrum beta-lactamases assessed as reduction in bacterial growth in the presence of Avibactam; assay type: functional
Enterobacter cloacae [16] = experiment: Antibacterial activity against Enterobacter cloacae 17-6 assessed as reduction in bacterial growth in the presence of Avibactam; assay type: functional
Klebsiella pneumoniae [17] = experiment: Ratio of MBC to MIC for Carbapenem- resistant Klebsiella pneumoniae KR 15-6 assessed as reduction in bacterial growth; assay type: functional
Pseudomonas aeruginosa [18] = experiment: Ratio of MBC to MIC for carbapenem-sensitive Pseudomonas aeruginosa 17-9 assessed as reduction in bacterial growth; assay type: functional
Pseudomonas aeruginosa [19] = experiment: Ratio of MBC to MIC for carbapenem-sensitive Pseudomonas aeruginosa 17-10 assessed as reduction in bacterial growth in the presence of Avibactam; assay type: functional
Klebsiella aerogenes [20] = experiment: Ratio of MBC to MIC for Enterobacter aerogenes 15-4 assessed as reduction in bacterial growth in the presence of Avibactam; assay type: functional
Pseudomonas aeruginosa [21] = experiment: Ratio of MBC to MIC for carbapenem-sensitive Pseudomonas aeruginosa 17-29 assessed as reduction in bacterial growth; assay type: functional
Klebsiella pneumoniae [22] = experiment: Antibacterial activity against ESBLs positive Carbapenem-sensitive Klebsiella pneumoniae 17-11 assessed as reduction in bacterial growth in the presence of Avibactam; assay type: functional
Klebsiella pneumoniae [23] = experiment: Ratio of MBC to MIC for ESBLs positive Carbapenem-sensitive Klebsiella pneumoniae 17-2 assessed as reduction in bacterial growth in the presence of Avibactam; assay type: functional
Enterobacter cloacae [24] = experiment: Ratio of MBC to MIC for Enterobacter cloacae 17-8 assessed as reduction in bacterial growth; assay type: functional
Klebsiella pneumoniae [25] = experiment: Antibacterial activity against ESBLs positive Carbapenem-sensitive Klebsiella pneumoniae 17-13 assessed as reduction in bacterial growth in the presence of Avibactam; assay type: functional
Enterobacter cloacae [26] = experiment: Ratio of MBC to MIC for Enterobacter cloacae 17-10 assessed as reduction in bacterial growth in the presence of Avibactam; assay type: functional
Klebsiella pneumoniae [27] = experiment: Antibacterial activity against ESBLs positive Carbapenem-sensitive Klebsiella pneumoniae 17-10 assessed as reduction in bacterial growth in the presence of Avibactam; assay type: functional
Escherichia coli [28] = experiment: Antibacterial activity against ESBLs negative Carbapenem-sensitive Escherichia coli 17-9 assessed as reduction in bacterial growth in the presence of Avibactam; assay type: functional
Klebsiella aerogenes [29] = experiment: Antibacterial activity against Enterobacter aerogenes 17-3 assessed as reduction in bacterial growth in the presence of Avibactam; assay type: functional
Acinetobacter baumannii [30] = experiment: Antibacterial activity against Carbapenem- resistant Acinetobacter baumannii 17-3 assessed as reduction in bacterial growth
Escherichia coli [31] = experiment: Ratio of MBC to MIC for ESBLs positive Carbapenem-sensitive Escherichia coli 17-18 assessed as reduction in bacterial growth; assay type: functional
Klebsiella aerogenes [32] = experiment: Ratio of MBC to MIC for Enterobacter aerogenes 17-1 assessed as reduction in bacterial growth in the presence of Avibactam; assay type: functional
Escherichia coli [33] = experiment: Antibacterial activity against ESBLs positive Carbapenem-sensitive Escherichia coli 17-8 assessed as reduction in bacterial growth in the presence of Avibactam; assay type: functional
Klebsiella pneumoniae [34] = experiment: Ratio of MBC to MIC for Klebsiella pneumoniae ATCC BAA-1705 assessed as reduction in bacterial growth; assay type: functional
Enterobacter cloacae [35] = experiment: Antibacterial activity against Enterobacter cloacae 17-9 assessed as reduction in bacterial growth
Escherichia coli [36] = experiment: Antibacterial activity against ESBLs negative Carbapenem-sensitive Escherichia coli 17-4 assessed as reduction in bacterial growth in the presence of Avibactam; assay type: functional
Escherichia coli [37] = experiment: Antibacterial activity against ESBLs positive Carbapenem-sensitive Escherichia coli 17-5 assessed as reduction in bacterial growth in the presence of Avibactam; assay type: functional
Klebsiella pneumoniae [38] = experiment: Ratio of MBC to MIC for ESBLs positive Carbapenem-sensitive Klebsiella pneumoniae 17-12 assessed as reduction in bacterial growth; assay type: functional
Enterobacter cloacae [39] = experiment: Ratio of MBC to MIC for Enterobacter cloacae 17-10 assessed as reduction in bacterial growth; assay type: functional
Escherichia coli [40] = experiment: Bactericidal activity against ESBLs positive Carbapenem-sensitive Escherichia coli 17-10 assessed as reduction in bacterial growth; assay type: functional
Klebsiella pneumoniae [41] = experiment: Antibacterial activity against ESBLs negative Carbapenem-sensitive Klebsiella pneumoniae 17-17 assessed as reduction in bacterial growth
Enterobacter cloacae [42] = experiment: Bactericidal activity against Enterobacter cloacae 17-8 assessed as reduction in bacterial growth; assay type: functional
Acinetobacter baumannii [43] = experiment: Bactericidal activity against Carbapenem- resistant Acinetobacter baumannii 17-11 assessed as reduction in bacterial growth; assay type: functional

`Nc1nc(/C(=N/OCc2cc(=O)c(O)cn2O)C(=O)N[C@@H]2C(=O)N3C(C(=O)O)=CCS[C@H]23)cs1` was tested, and the Ratio (Escherichia coli [1]) was 2, the MIC (Pseudomonas aeruginosa [2]) was 2 µg/mL and the MIC (Escherichia coli [3]) was 0.06 µg/mL. The Ratio (Klebsiella aerogenes [4]) was 1, the Ratio (Klebsiella aerogenes [5]) was 1 and the Ratio (Escherichia coli [6]) was 8. The Ratio (Pseudomonas aeruginosa [7]) was 16, the MIC (Acinetobacter baumannii [8]) was over 64 µg/mL and the MIC (Enterobacter cloacae [9]) was 0.5 µg/mL. For the same compound, the Ratio (Escherichia coli [10]) was 1, the MIC (Escherichia coli [11]) was 0.5 µg/mL and the Ratio (Klebsiella pneumoniae [12]) was 2. The Ratio (Pseudomonas aeruginosa [13]) was 8, the Ratio (Escherichia coli [14]) was 2 and the MIC (Escherichia coli [15]) was 1 µg/mL. It also gave an MIC (Enterobacter cloacae [16]) of 1 µg/mL, a Ratio (Klebsiella pneumoniae [17]) of 4 and a Ratio (Pseudomonas aeruginosa [18]) of 4. For the same compound, the Ratio (Pseudomonas aeruginosa [19]) was 2, the Ratio (Klebsiella aerogenes [20]) was 2 and the Ratio (Pseudomonas aeruginosa [21]) was 4. It also gave an MIC (Klebsiella pneumoniae [22]) of 4 µg/mL, a Ratio (Klebsiella pneumoniae [23]) of 1 and a Ratio (Enterobacter cloacae [24]) of 1. The MIC (Klebsiella pneumoniae [25]) was at most 0.03 µg/mL, the Ratio (Enterobacter cloacae [26]) was 2 and the MIC (Klebsiella pneumoniae [27]) was 1 µg/mL. The MIC (Escherichia coli [28]) was 0.5 µg/mL, the MIC (Klebsiella aerogenes [29]) was 0.5 µg/mL and the MIC (Acinetobacter baumannii [30]) was over 64 µg/mL. For the same compound, the Ratio (Escherichia coli [31]) was 4, the Ratio (Klebsiella aerogenes [32]) was 2 and the MIC (Escherichia coli [33]) was 0.5 µg/mL. The Ratio (Klebsiella pneumoniae [34]) was over 1, the MIC (Enterobacter cloacae [35]) was 8 µg/mL (≈ 15.7 µM) and the MIC (Escherichia coli [36]) was 0.125 µg/mL. It also gave an MIC (Escherichia coli [37]) of 1 µg/mL, a Ratio (Klebsiella pneumoniae [38]) of 2 and a Ratio (Enterobacter cloacae [39]) of over 8.

With `CC(C)(O/N=C(\C(=O)N[C@@H]1C(=O)N2C(C(=O)[O-])=C(C[n+]3ccccc3)CS[C@H]12)c1csc(N)n1)C(=O)O` [CEFTAZIDIME] the MBC (Escherichia coli [40]) was 16 µg/mL (≈ 29.3 µM), the MIC (Klebsiella pneumoniae [41]) was 0.125 µg/mL (≈ 0.229 µM) and the MBC (Enterobacter cloacae [42]) was 1 µg/mL (≈ 1.83 µM). It also gave an MBC (Acinetobacter baumannii [43]) of over 64 µg/mL.
